Measurements published in patent US20080176811A1, “NOVEL FLAVONE GLYCOSIDE DERIVATIVES FOR USE IN COSMETICS, PHARMACEUTICALS AND NUTRITION” (priority 2000, published 2008).
Entries after “also recorded” stand apart in the source; their conditions may differ. Where two headings read alike, the source gives them in different places.

Legend:
Colα1-mRNA = test: Light-induced expression of Colα1-mRNA in skin models (Northern blot); type: cell-based; settings: for Collagen expression: exposed, 0 ppm unexposed = 100; for percentage change in the expression of Colα1: by comparison with exposed, untreated cultures
Method: (§1) To this end, the quantity of mRNA was quantified for MMP1, TIMP and Colaα1. Skin models were treated with the test substances for 12 hours and then exposed to simulated sunlight corresponding to a dose of 10 J UV-A/cm^2. After another 48 hours in the presence of the active substances, the RNA of the cells was prepared and analyzed by Northern blots with specific gene probes. To monitor the quantity of RNA used in the experiments, Northern blots were carried out with an 18S-specific gene probe. To quantify the signal intensities, the autoradiograms were evaluated by densitometry and the values of the signals for MMP1, TIMP and Colα1, were related to the associated values of the 18S signals. The figures in Table 1 represent the densitometric quantification of the signals of a Northern blot after normalization thereof.

MMP-1-mRNA = test: Light-induced expression of MMP-1-mRNA in skin models (Northern blot); type: cell-based; settings: for MMP 1 expression: 0 ppm unexposed = 100; for percentage change in the expression of MMP: by comparison with exposed, untreated cultures
Method: as §1

[1] = test system: Dermal fibroblasts of human skin; test: Phototoxicity, MTT test after simulated sunlight (10 J UV-A/cm^2); type: cell-based
Method: Dermal fibroblasts of human skin were cultivated with increasing concentrations of retinol (Table 1), 6-O-naringin-(p-Cl-phenylacetic acid)ester (Table 2) and 6-O-naringin-(3-phenylpropionic acid)-ester (Table 3). The phototoxicity of the substances was measured by an MTT test. To determine phototoxicity, the treated cells were exposed to simulated sunlight corresponding to a dose of 10 J UV-A/cm^2. The vitality of untreated cells was put at 100% and all other values were related to that value.
The exposure of the cells was carried out with a sunlight simulator from the emission spectrum of which the UV-A component of the radiation was measured for quantification. The advantage of this experimental design is the fact that the complete spectrum of the sunlight is used so that the everyday situation is excellently simulated. By contrast, many other research laboratories use pure UV-A and for UV-B lamps.

[2] = test system: fungal tyrosinase (Sigma); test: Inhibition of tyrosinase activity (L-DOPA to dopachromium, absorption at 475 nm); type: biochemical; settings: for Residual tyrosinase activity in %: without active substance = 100%
Method: Tyrosinases physiologially catalyze an important step in the synthesis of melanin (L-dopa to L-dopaquinone which is further cyclized and re-reacted by a tyrosinase to dopachromium). Accordingly, inhibition of the tyrosinase can lead to a skin lightening effect.
The activity of fungal tyrosinase (Sigma) was determined in the presence of various concentrations of the active substances according to the invention by enzymatic reaction of LDOPA to dopachromium. The absorption maximum of dopachromium (red-brown) is at λ=475 nm. The linear increase in the absorption (A) of the dopachromium per unit of time (t) is a measure of the activity of the tyrosinase (ΔN/Δt). The activity of the tyrosinase in the absence of the active substances (ΔA1/Δt1) was used as reference (100%). Under analogous conditions, the residual tyrosinase activity was determined in the presence of the active substances (ΔA2/Δt2). Each measurement was carried out twice in parallel runs. The variation of the results of the method is ca.±10%.
50 mM KH2PO4 buffer in bidist. water (adjustment to pH 6.5 with 1 M aqueous KOH) 2.5 mM L-DOPA in bidist. water 340 U/ml tyrosinase stock solution in cold KH2PO4 buffer, pH 6.5. Stock solutions of the active substance to be tested in bidist. water or ethanol in which the concentration of the active substance was 10 times higher than indicated in the line “active substance concentration in the test system” under “results”.
Like the tyrosinase stock solution, the reaction cocktail was prepared just before the beginning of the test. The tyrosinase stock solution has to be kept in a refrigerator. The L-DOPA solutions should be stored in darkness and in tightly closed containers in the absence of oxygen. If it turns grey in color (oxidation by atmospheric oxygen), the solution must be freshly prepared.
33 μl tyrosinase stock solution 100 μl active substance stock solution reaction cocktail to 1000 μl
The activity of the tyrosinase in the absence of the active substances was used as reference (100%). All samples were thoroughly mixed in a Vibrofix before the beginning of the measurement. The pH value was monitored and if necessary was adjusted to pH 6.5. The measurement was carried out with a Kontron Uvikon 860 photometer. The absorption of the dopachromium was detected for 5 mins. at 25° C. at the absorption maximum X of 475 nm, the measuring time being 20-30 s.

TIMP-mRNA = test: Light-induced expression of TIMP-mRNA in skin models (Northern blot); type: cell-based; settings: for TIMP expression: 0 ppm unexposed = 100; for percentage change in the expression of TIMP: by comparison with exposed, untreated cultures
Method: as §1

fibroblasts = test: Collagen production at protein level, fibroblasts in three-dimensional culture system; type: cell-based; settings: 5 days, treated against untreated cultures
Method: On the sixth day, the quantity of collagen formed compared with non-collagen protein was determined via the incorporation of titrated protein.

With `C[C@@H]1O[C@@H](O[C@H]2[C@H](Oc3cc(O)c4c(c3)O[C@H](c3ccc(O)cc3)CC4=O)O[C@H](COC(=O)CCc3ccccc3)[C@@H](O)[C@@H]2O)[C@H](O)[C@H](O)[C@H]1O` [6-O-naringin-(3-phenylpropionic acid)-ester] the Collagen expression (Colα1-mRNA; 10 ppm) was 74%, the “expression of Colα1 (in words)” value (Colα1-mRNA; 100 ppm) was “increased to the level of the unexposed, untreated culture” and the Collagen expression (Colα1-mRNA; 100 ppm) was 99%. For the same molecule, the “percentage change in the expression of Colα1” value (Colα1-mRNA; 100 ppm) was 64%, the “MMP 1 expression” value (MMP-1-mRNA; 10 ppm, exposed) was 167% and the “sunlight-induced expression of MMP-1 (in words)” value (MMP-1-mRNA; 100 ppm) was “reduced the sunlight-induced expression of MMP-1 to the level of the unexposed, untreated sample”. The “MMP 1 expression” value (MMP-1-mRNA; 100 ppm, exposed) was 87%, the “percentage change in the expression of MMP” value (MMP-1-mRNA; 100 ppm) was −37% and the “Phototoxicity (in words)” value [1] was “only show toxic effects in relatively high concentrations”. For the same molecule, the “Residual tyrosinase activity in %” value ([2]; active substance 0.005% (w/v in bidist H2O)) was 98.9%, the “Residual tyrosinase activity in %” value ([2]; active substance 0.05% (w/v in bidist H2O)) was 69.1% and the “Residual tyrosinase activity in %” value ([2]; active substance 0.5% (w/v in bidist H2O)) was 0.7%. The “IC 50 (tyrosinase)” value ([2]; w/v in bidist H2O) was 0.18%, the TIMP expression (TIMP-mRNA; 10 ppm, exposed) was 104% and the “TIMP production (in words)” value (TIMP-mRNA; 100 ppm) was “increased TIMP production considerably”. The “increase in expression of TIMP” value (TIMP-mRNA; 100 ppm, exposed) was “around 35%”, the TIMP expression (TIMP-mRNA; 100 ppm, exposed) was 134% and the “percentage change in the expression of TIMP” value (TIMP-mRNA; 100 ppm) was 50%. For the same molecule, the “Increase in collagen production” value (fibroblasts; 1 ppm) was 8%, the “Increase in collagen production” value (fibroblasts; 10 ppm) was 8% and the “Increase in collagen production” value (fibroblasts; 100 ppm) was 19%.
In the case of `CC1=C(/C=C/C(C)=C/C=C/C(C)=C/CO)C(C)(C)CCC1` [retinol, reference compound], the “Phototoxicity (in words)” value [1] is reported as “toxic in very low concentrations”, the “Vitality (%; in brackets: SEM)” value ([1]; human, 0.0028 ppm) is reported as 99 (7.4) % and the “Vitality (%; in brackets: SEM)” value ([1]; human, 0.014 ppm) is reported as 95 (19.8) %. For the same molecule, the “Vitality (%; in brackets: SEM)” value ([1]; human, 0.028 ppm) was 80 (25.9) %, the “Vitality (%; in brackets: SEM)” value ([1]; human, 0.14 ppm) was 28 (11.8) % and the “Vitality (%; in brackets: SEM)” value ([1]; human, 0.28 ppm) was 4 (2.1) %.
In the case of `CC1OC(OC2C(Oc3cc(O)c4c(c3)OC(c3ccc(O)cc3)CC4=O)OC(COC(=O)Cc3ccc(Cl)cc3)C(O)C2O)C(O)C(O)C1O` (stereo not shown) [6-O-naringin-(p-Cl-phenylacetic acid)-ester], the Collagen expression (Colα1-mRNA; 5 ppm) is reported as 56%, the Collagen expression (Colα1-mRNA; 50 ppm) is reported as 79% and the “percentage change in the expression of Colα1” value (Colα1-mRNA; 50 ppm) is reported as 27%. For the same molecule, the “expression of Colα1 (in words)” value (Colα1-mRNA; 50 ppm, in relation to the exposed, untreated sample) was “distinctly increased”, the “MMP 1 expression” value (MMP-1-mRNA; 5 ppm, exposed (10 J UV-A/cm^2)) was 129% and the “sunlight-induced expression of MMP-1 (in words)” value (MMP-1-mRNA; 50 ppm) was “very effectively reduced”. For the same molecule, the “MMP 1 expression” value (MMP-1-mRNA; 50 ppm, exposed) was 40%, the “percentage change in the expression of MMP” value (MMP-1-mRNA; 50 ppm) was −70% and the “Vitality (%; in brackets: SEM)” value ([1]; 5 ppm, 10 J UV-A/cm^2, untreated cells = 100%) was 115 (15) %. The “Vitality (%; in brackets: SEM)” value ([1]; 10 ppm, 10 J UV-A/cm^2, untreated cells = 100%) was 96 (17.2) %, the “Vitality (%; in brackets: SEM)” value ([1]; 50 ppm, 10 J UV-A/cm^2, untreated cells = 100%) was 81 (8.3) % and the “Vitality (%; in brackets: SEM)” value ([1]; 100 ppm, 10 J UV-A/cm^2, untreated cells = 100%) was 3 (1.7) %. For the same molecule, the “Vitality (%; in brackets: SEM)” value ([1]; 500 ppm, 10 J UV-A/cm^2, untreated cells = 100%) was 3 (1.8) %, the “Phototoxicity (in words)” value ([1]; compared with retinol, 10 J UV-A/cm^2) was “only show toxic effects in relatively high concentrations” and the “Residual tyrosinase activity in %” value ([2]; active substance 0.01% (w/v in 98% ethanol)) was 45.1%. For the same molecule, the “Residual tyrosinase activity in %” value ([2]; active substance 0.1% (w/v in 98% ethanol)) was 15.4%, the TIMP expression (TIMP-mRNA; 5 ppm, exposed) was 62% and the “expression of TIMP (in words)” value (TIMP-mRNA; 50 ppm) was “only slightly affected; also recorded: only a slight effect”. The TIMP expression (TIMP-mRNA; 50 ppm, exposed) was 77%, the “percentage change in the expression of TIMP” value (TIMP-mRNA; 50 ppm) was −15% and the “Increase in collagen production” value (fibroblasts; 5 ppm) was −3%. For the same molecule, the “Increase in collagen production” value (fibroblasts; 50 ppm) was 41%.
